Literature values as cited in paper PMC7618104, “The GLP-1 analogue, exendin-4, improves bone material properties and strength through a central relay in ovariectomized mice” (American journal of physiology. Endocrinology and metabolism, 2025).
Ends that are not written are not given here.

Tests used:
CNS = conditions: mouse, in vivo, iv; cited from earlier work
Text: (§1) Taken altogether, these studies might support a brain entry through adsorptive transcytosis across brain endothelial cells. The l ...

osteoblast cultures = conditions: in vitro study; cited from earlier work
Text: These observations formed the basis for investigating the potential utility of a GLP-1r agonist for the management of bone fragility. Ex-4 has already been administered subcutaneously in preclinical models of bone fragility, including the OVX model used in the present study. Previous studies have reported positive effects of Ex-4 that increased bone mineral density, trabecular microstructure and circulating calcitonin leve ...

humans = conditions: exogenous GLP-1, humans; cited from earlier work
Text: (§2) Previously, we and others have highlighted the beneficial role of several gut hormones on bone physiology ([5]). Among gut hormones, glucagon-like peptide-1 (GLP-1) was reported to be beneficial for bone strength. Indeed, animals with a genetic impairment of the GLP-1 receptor (GLP-1r) presented with reduced bone mass, deterioration of bone microarchitecture and alterations of bone material properties, especially enzymatic collagen crosslinking, that jeopardized bone strength ([6], [7]). In humans, GLP-1r gene polymorphisms have also been reported to impact bone mineral density and mass ([8]) ...

[1] = test system: streptozotocin-induced type 1 diabetes mellitus; conditions: cited from earlier work
brain = conditions: in vivo; cited from earlier work
Text: as §1

[2] = test system: individuals in randomized clinical trials; conditions: cited from earlier work
Text: as §2

Row | Substance | brain entry after peripheral administration (brain) | fracture in individuals affected by type 2 diabetes mellitus [2] | also measured
1 | [Ser8]GLP-1: radiolabeled [Ser8]GLP-1, a stable analogue of GLP-1 (HSEGTFTSDVSSYLEGQAAKEFIAWLVKGRG; also: radiolabeled; UniProt P01275 98-128, looked up, variant A8S) | – | – | CNS access, inhibition by excess unlabeled peptide or exendin antagonist (CNS): not inhibited by excess doses
2 | glucagon-like peptide-1 (HAEGTFTSDVSSYLEGQAAKEFIAWLVKGR; ends and bridges not checked; UniProt P01275 98-127, looked up) [GLP-1, gut hormone] | – | – | collagen maturity in vitro (osteoblast cultures): no direct positive effects of GLP-1 on collagen maturity; bone remodeling (humans): rapidly modulates bone remodeling
3 | liraglutide | reported to enter the brain parenchyma | contribute to reduce fracture | bone resistance to fracture [1]: able to enhance bone resistance to fracture
4 | lixisenatide | – | contribute to reduce fracture | –
5 | semaglutide | reported to enter the brain parenchyma | – | –
